From patent publication US12565494B2, “Inhibitors of human respiratory syncytial virus and metapneumovirus” (priority 2022, dated 2026)
Like-named read-outs stand apart in the source and are kept apart here.

Legend:
[1] = tested on: RSV-A2-GFP virus; assay: microbe, parasite or virus in culture; type: cell-based, Human Respiratory Syncytial Virus; details: Calu-1 cells, RSV-A2-GFP MOI=1.2, 96 hrs, GFP-expressing cells counted
Description: To set up the assay, ARF vials were thawed in a 37° C. water bath and a control compound was resuspended in assay media DMEM (Dulbecco's Modified Eagle Medium) containing 2% FBS, 100 U/ml Penicillin-Streptomycin.
GFP sequence was derived from pJTI™ R4 Dest CMV N-EmGFP pA Vector (Invitrogen) and was cloned into the intergenic sequence between wild-type RSV-A2 P and M genes using standard recombineering techniques. Recombinant RSV-A2-GFP was propagated in Hep2 cells (human cells contain HeLa marker chromosomes and were derived via HeLa contamination, ATCC CCL-23) with a Multiplicity of Infection (MOI) of 0.1. Virus was harvested 3 days after infection by collecting all culture material and then freeze-thawing the mixture for 5 minutes. Working virus stocks were generated by thawing frozen viral cultures in 37° C. water bath, which were centrifuged at 218 g for 15 min at 4° C. 1/10 of 10×SPG (Biological Industries 06-3061-01-5A) were added and then mixed. The supernatant was aliquoted, frozen in liquid nitrogen, and then transferred to a −80° C. freezer for storage. Virus titer was determined by automated plaque assay in HEp-2 cells following methods described previously (Wen Z. et al.; 2019).
Calu-1 cells were purchased from ATCC (Cat #HTB-54) and were expanded in growth media (DMEM containing 10% FBS, 100 U/ml Penicillin-Streptomycin). To make ARF, cell culture media was removed and discarded and the cell layer was briefly rinsed with PBS to remove serum. 2.5 mL of TrypLE Express solution were added and cells incubated until dislodged, to which growth media was added and the cells were resuspended by gentle pipetting. Cells were counted for concentration and viability as determined by ViCell. Cells were centrifuged at RT, 300 g for 5 minutes to pellet cells. The supernatant was gently aspirated and the pellet was flicked to loosen cells. Cells were resuspended in an appropriate volume of freezing medium (DMEM containing 10% DMSO, 10% FBS, 100 U/ml Penicillin-Streptomycin) to achieve a concentration of 5×10^6 cells/mL. 1 mL aliquots of the cell suspension were transferred to freezing vials. The vials were put into an upright container in a −80° C. freezer overnight before transferring vials to liquid nitrogen for storage
Assay ready freeze-down (ARF, generation described separately) Calu-1 cells (ATCC HTB-54) were used. Compound plates were prepared by dispensing compounds dissolved in DMSO into the wells of a 384 well Corning® 3985 plate with an ECHO acoustic dispenser and compounds were tested in 10-point serial 3-fold dilution. […] To set up the assay, ARF vial(s) were thawed in a 37° C. water bath and were then resuspended into assay media (DMEM containing 2% FBS, 100 U/ml Penicillin-Streptomycin). Cells were counted using default parameters on ViCell and diluted to 20,000 cells/mL in assay media. RSV-A2-GFP virus was added to cells at 24,000 pfu/ml (MOI=1.2) and mixed by gentle inversion. 10 μL/well of 100% DMSO was dispensed as CellTiter-Glo (CTG) assay Max_E controls wells. The cells were dispensed at 50 μL/well using Bravo with 50 μL filtered tips into compound plates. Plates were covered with MicroClime lids, loaded with 7.5 mL of assay media to minimize evaporation, and were incubated at 37° C. and 5% CO2 for 96 hrs. Following incubation, distinct, GFP-expressing cells were counted using an Acumen imaging system with appropriate settings. A same-well CTG assay was performed by adding 10 μL/well reconstituted CellTiter-Glo reagent (Promega G7573) and plates were read on PerkinElmer Envision according to manufacturer's instructions. Raw data were loaded and analyzed in ActivityBase. Antiviral IC50 and cytotoxicity CC50 values were determined using a 4 parameter logistic fit based on the Levenberg-Marquardt algorithm. Model: 205-4 Parameter Logistic.

[2] = tested on: hMPV-GFP virus; assay: microbe, parasite or virus in culture; type: cell-based, Human Metapneumovirus; details: VERO cells, hMPV-GFP MOI=1.25, 48 hrs, GFP-expressing cells counted
Description: GFP expressing rgHMPV #3 p3 was generated in Dr. Buchholz's lab (Biacchesi S. et al., J Virol. 2007 June; 81(11): 6057-6067) and propagated in VERO cells (ATCC Cat #CCL-81) with a Multiplicity of Infection (MOI) of 0.1. Virus was harvested 4 days after infection by collecting cultured material and was freeze-thaw cycled in liquid nitrogen twice. Working virus stocks were generated from thawing frozen samples in 37° C. water bath, which were centrifuged at 218 g for 15 min at 4° C. 1/10 of 10×SPG (Biological Industries 06-3061-01-5A) were added and then mixed. The supernatant was aliquoted, frozen in liquid nitrogen, and then transferred to a −80° C. freezer for storage. Virus titer was determined by performing titration test in 96-well plates and calculate approximate virus titer using GFP event/well data.
Compound plates were prepared by dispensing compounds dissolved in DMSO into wells of a 384 well Corning 3985 polystyrene flat clear bottom optical imaging microplate (202.5 nL/well) using an ECHO acoustic dispenser. Each compound was tested in 10-point serial 3-fold dilution (typical final concentrations: 40,300 nM-2 nM). […] Continuous culture of VERO cells was maintained in complete culture media (OptiMEM supplemented with 2 mM GlutaMAX™ and 100 U/ml Penicillin-Streptomycin). To set up the assay, VERO cells were trypsinized with 0.25% Trypsin-EDTA until cells were dislodged, then cells were re-suspended with 1 mL FBS. Cells were spundown at 300 g for 5 minutes and cells were washed twice with culture media and counted using default parameters on ViCell. Cells were then diluted to 100,000 cells/mL (5,000 cells/50 μL) in complete culture media+TrypLE Select (80 μL/mL). hMPV-GFP virus was added to cells at 125,000 pfu/mL (MOI=1.25) and were mixed by gentle inversion. 10 μL/well of 100% DMSO was dispensed to CellTiter-Glo (CTG) assay Max_E controls wells. Cells were dispensed at 50 μL/well using Bravo and 50 μL filtered tips into compound plates. Plates were covered with MicroClime lids and loaded with 7.5 mL of assay media to minimize evaporation. Plates were lightly shaken for 10 minutes at room temperature and then incubated at 37° C. and 5% CO2 for 48 hrs. Following incubation, distinct GFP-expressing cells were counted using an Acumen imaging system with appropriate settings. A same-well CTG assay was performed by adding 10 μL/well reconstituted CellTiter-Glo reagent (Promega G7573) and plates were read on PerkinElmer Envision according to manufacturer's instructions. Raw data were loaded and analyzed in ActivityBase. Antiviral IC50 and cytotoxicity CC50 values were determined using a 4 parameter logistic fit based on the Levenberg-Marquardt algorithm. Model: 205-4 Parameter Logistic.

[3] = human respiratory syncytial virus, Calu-1, 96 h, read-out: RSV EC50, Table I Summary of Activities for RSV
[4] = Vero, 48 h, read-out: RSV EC50, Table II Summary of Activities for hMPV
[5] = Table I Summary of Activities for RSV, read-out: RSV EC50
[6] = Table II Summary of Activities for hMPV, read-out: RSV EC50

| SMILES | EC50 [1, 3] [nM] | EC50 [2, 4] [nM] | EC50 [1, 5] [nM] | EC50 [2, 6] [nM] |
| --- | --- | --- | --- | --- |
| Cc1nc(-c2ncco2)sc1C(=O)N1C[C@@H]2[C@H](C1)[C@H]2Oc1cc(C(C)(C)N)cc(-c2ccc(F)cc2)n1 [Example 3, ((1R,5S,6s)-6-((4-(2-aminopropan-2-yl)-6-(4-fluorophenyl)pyridin-2-yl)oxy)-3-azabicyclo[3.1.0]hexan-3-yl)(4-methyl-2-(oxazol-2-yl)thiazol-5-yl)methanone] | < 10 | 10 to 100 |  |  |
| Cc1cnc(-c2nc(C)c(C(=O)N3C[C@@H]4[C@H](C3)[C@H]4Oc3cc(C(C)(C)N)cc(-c4ccc(F)cc4)n3)s2)o1 [Example 4, ((1R,5S,6s)-6-((4-(2-aminopropan-2-yl)-6-(4-fluorophenyl)pyridin-2-yl)oxy)-3-azabicyclo[3.1.0]hexan-3-yl)(4-methyl-2-(5-methyloxazol-2-yl)thiazol-5-yl)methanone] |  |  | < 10 | 10 to 100 |
| Cc1nc(-c2ccon2)sc1C(=O)N1C[C@@H]2[C@H](C1)[C@H]2Oc1cc(C(C)(C)N)cc(-c2ccc(F)cc2)n1 [Example 5, ((1R,5S,6s)-6-((4-(2-aminopropan-2-yl)-6-(4-fluorophenyl)pyridin-2-yl)oxy)-3-azabicyclo[3.1.0]hexan-3-yl)(2-(isoxazol-3-yl)-4-methylthiazol-5-yl)methanone] |  |  | < 10 | 10 to 100 |
| Cc1nc(-c2nccs2)sc1C(=O)N1C[C@@H]2[C@H](C1)[C@H]2Oc1cc(C(C)(C)N)cc(-c2ccc(F)cc2)n1 [Example 6, ((1R,5S,6s)-6-((4-(2-aminopropan-2-yl)-6-(4-fluorophenyl)pyridin-2-yl)oxy)-3-azabicyclo[3.1.0]hexan-3-yl)(4-methyl-[2,2′-bithiazol]-5-yl)methanone] |  |  | < 10 | > 100 |
| Cc1nc(-c2cscn2)sc1C(=O)N1C[C@@H]2[C@H](C1)[C@H]2Oc1cc(C(C)(C)N)cc(-c2ccc(F)cc2)n1 [Example 7, ((1R,5S,6s)-6-((4-(2-aminopropan-2-yl)-6-(4-fluorophenyl)pyridin-2-yl)oxy)-3-azabicyclo[3.1.0]hexan-3-yl)(4-methyl-[2,4′-bithiazol]-5-yl)methanone] |  |  | < 10 | 10 to 100 |
| CC(C)(N)c1cc(O[C@H]2[C@@H]3CN(C(=O)c4sc(-c5cscn5)nc4C4CC4)C[C@@H]32)nc(-c2ccc(F)cc2)c1 [Example 8, ((1R,5S,6s)-6-((4-(2-aminopropan-2-yl)-6-(4-fluorophenyl)pyridin-2-yl)oxy)-3-azabicyclo[3.1.0]hexan-3-yl)(4-cyclopropyl-[2,4′-bithiazol]-5-yl)methanone] |  |  | < 10 | 10 to 100 |
| Cc1nc(-c2ncc[nH]2)sc1C(=O)N1C[C@@H]2[C@H](C1)[C@H]2Oc1cc(C(C)(C)N)cc(-c2ccc(F)cc2)n1 [Example 9, (2-(1H-imidazol-2-yl)-4-methylthiazol-5-yl)((1R,5S,6s)-6-((4-(2-aminopropan-2-yl)-6-(4-fluorophenyl)pyridin-2-yl)oxy)-3-azabicyclo[3.1.0]hexan-3-yl)methanone] |  |  | < 10 | > 100 |
| Cc1nc(-c2ncn[nH]2)sc1C(=O)N1C[C@@H]2[C@H](C1)[C@H]2Oc1cc(C(C)(C)N)cc(-c2ccc(F)cc2)n1 [Example 10, ((1R,5S,6s)-6-((4-(2-aminopropan-2-yl)-6-(4-fluorophenyl)pyridin-2-yl)oxy)-3-azabicyclo[3.1.0]hexan-3-yl)(4-methyl-2-(1H-1,2,4-triazol-5-yl)thiazol-5-yl)methanone] |  |  | < 10 | > 100 |
| CCc1nc(-c2nc[nH]n2)sc1C(=O)N1C[C@@H]2[C@H](C1)[C@H]2Oc1cc(C(C)(C)N)cc(-c2ccc(F)cc2)n1 [Example 11, ((1R,5S,6s)-6-((4-(2-aminopropan-2-yl)-6-(4-fluorophenyl)pyridin-2-yl)oxy)-3-azabicyclo[3.1.0]hexan-3-yl)(4-ethyl-2-(1H-1,2,4-triazol-3-yl)thiazol-5-yl)methanone] |  |  | < 10 | > 100 |
| Cc1nc(-c2cccs2)sc1C(=O)N1C[C@@H]2[C@H](C1)[C@H]2Oc1cc(C(C)(C)N)cc(-c2ccc(F)cc2)n1 [Example 12, ((1R,5S,6s)-6-((4-(2-aminopropan-2-yl)-6-(4-fluorophenyl)pyridin-2-yl)oxy)-3-azabicyclo[3.1.0]hexan-3-yl)(4-methyl-2-(thiophen-2-yl)thiazol-5-yl)methanone] |  |  | < 10 | > 100 |
| Cc1nc(-c2ccco2)sc1C(=O)N1C[C@@H]2[C@H](C1)[C@H]2Oc1cc(C(C)(C)N)cc(-c2ccc(F)cc2)n1 [Example 13, ((1R,5S,6s)-6-((4-(2-aminopropan-2-yl)-6-(4-fluorophenyl)pyridin-2-yl)oxy)-3-azabicyclo[3.1.0]hexan-3-yl)(2-(furan-2-yl)-4-methylthiazol-5-yl)methanone] |  |  | < 10 | 10 to 100 |
| CC(C)(N)c1cc(O[C@H]2[C@@H]3CN(C(=O)c4sc(-c5cscn5)nc4C(F)F)C[C@@H]32)nc(-c2ccc(F)cc2)c1 [Example 14] | < 10 | > 100 |  |  |
| CC(C)(N)c1cc(O[C@H]2[C@@H]3CN(C(=O)c4sc(-c5ncco5)nc4C(F)F)C[C@@H]32)nc(-c2ccc(F)cc2)c1 [Example 15, ((1R,5S,6s)-6-((4-(2-aminopropan-2-yl)-6-(4-fluorophenyl)pyridin-2-yl)oxy)-3-azabicyclo[3.1.0]hexan-3-yl)(4-(difluoromethyl)-2-(oxazol-2-yl)thiazol-5-yl)methanone] |  |  | < 10 | > 100 |
